Where “and” joins values, the source holds several entries; their conditions need not be identical. Equal entries are not always repeated. Entries after “also recorded” stand apart in the source; their conditions may differ.
Assays:
[1] = test system: MEF cells from wild-type mouse embryos; experiment: Toxicity of JP4-039 in wild-type MEF cultures; assay type: cell-based; details: up to 10 μM, 48 hours
Experimental: To assess the therapeutic potential of JP4-039, tests for safety and protective activity were performed. FIGS. 35 and 36 show the results of tests to evaluate whether varying concentrations of JP4-039 produce toxic effects after 48 hours in cultures of MEF cells prepared from Ercc1^−/− or wild-type mouse embryos, respectively.

32D cl 3 cells = experiment: EPR-based analysis of nitroxide distribution and partitioning in subcellular fractions; assay type: cell-based, mouse; details: 10 μM, 1 h
Experimental: To determine nitroxide partitioning and distribution in subcellular compartments, electron paramagnetic resonance (EPR) was utilized. 32D cl 3 cells were incubated for 24 h under pelleted or flask growth conditions. After incubation, 150×10^6 cells were resuspended at a concentration of 10×10^6 cells/mL and were treated with 10 μM JP4-039 or 10 μM TEMPO for 1 h (Wipf P, et al., Mitochondrial targeting of selective electron scavengers: synthesis and biological analysis of hemigramicidin-TEMPO conjugates. J Am Chem. Soc. 127: 12460-12461, 2005).
Subcellular compartments were isolated by differential centrifugation. Cells were centrifuged at 1500 RPM for 10 min and the supernatant (media) was removed. The remaining whole cell pellet was washed with cold PBS, resuspended in 0.3 mL of hypotonic buffer solution, and incubated on ice for 45 min. Cells were then lysed by three rapid freeze-thaw cycles in liquid nitrogen for 30 sec and water at 25° C. for 3 min. Lysed cells were centrifuged at 3000×g for 5 min to isolate nucleus and cellular debris. Supernatant was centrifuged at 12000×g for 45 min to isolate mitochondria from cytoplasm (Wipf P, et al., Mitochondrial targeting of selective electron scavengers: synthesis and biological analysis of hemigramicidin-TEMPO conjugates. J Am Chem. Soc. 127: 12460-12461, 2005).
Each cellular fraction (media, whole cell pellet, nucleus/cellular debris, mitochondria, and cytoplasm) was mixed with DMSO (1:1 vol/vol) and 2 mM of potassium ferricyanide (K3Fe(CN)6) to convert […] to EPR-detectable radical forms (Behringer W, et al., Antioxidant Tempol enhances hypothermic cerebral preservation during prolonged cardiac arrest in dogs. J Cereb Blood Flow Metab. 22: 105-117, 2002). 70 μL of the homogenate was loaded into Teflon tubing (0.8 mm internal diameter) (Alpha Wire Corp., Elizabeth, N.J.) which was folded in half and placed into an open ESR quartz tube (inner diameter of 3.0 mm). EPR measurements were made in triplicate using a JEOL-RE1X EPR spectrometer (Jeol, Tokyo, Japan) under the following conditions: 334.7 mT center field, 5 mT sweep width, 0.079 mT field modulation, 20 mW microwave power, 0.1 sec time constant, and 2 min scan time at 22.5° C. Utilizing signal magnitude and isolated volumes, amount and concentration of JP4-039 or TEMPO were calculated for each sample.

[2] = test system: KM101 human marrow stromal cells; experiment: Irradiation survival of KM101 marrow stromal cells; assay type: cell-based; details: 10 μM; for n (shoulder): control 1.1
Experimental: KM101 cells were incubated in media alone or in JP4-039 (10 μM) for one hour before irradiation or 24 hours after irradiation. The cells were irradiated to doses ranging from 0 to 6 Gy and plated in 4 well plates. Seven days later the cells were stained with crystal violet and colonies of greater than 50 cells counted. Cells incubated in JP4-039 either before or after irradiation were more radioresistant as shown by an increased shoulder of n=2.3±0.2 or 2.2±0.2, respectively compared to n of 1.1±0.1 for the KM101 cells (p=0.0309 or 0.0386, respectively).

rat ileal mucosa = experiment: Peroxidation of phospholipids in intestinal mucosa after hemorrhagic shock; assay type: in vivo; details: 10 μM intraluminal, 2 h HS
Description: Assay for peroxidation of phospholipids. Gut mucosal samples were homogenized. Lipids were extracted from homogenates using the Folch procedure, see M. Lees and G. H. Sloan-Stanley, A simple method for isolation and purification of total lipids from animal tissue, J. BIOL. CHEM. 226:497-509 (1957), and resolved by 2D HPTLC (High Performance Thin Layer Chromatography) as previously described, see Kagan, V. E. et al., A role for oxidative stress in apoptosis: Oxidation and externalization of phosphatidylserine is required for macrophage clearance of cell undergoing Fas-mediated apoptosis, J Immunol, 2002, 169:487-489. Spots of phospholipids'were scraped from HPTLC plates and phospholipids were extracted from silica. Lipid phosphorus was determined by a micro-method, see Bottcher, C. J. F. et al., A rapid and sensitive sub-micro phosphorus determination, Anal Chim Acta. 1961, 24: 203-204.
Oxidized phospholipids were hydrolyzed by pancreatic phospholipase A2 (2 U/μl) in 25 mM phosphate buffer containing 1 mM CaCl2, 0.5 mM EDTA and 0.5 mM sodium dodecyl sulfate (SDS) (pH 8.0, at room temperature for 30 min). Fatty acid hydroperoxides formed were determined by fluorescence HPLC of resorufin stoichiometrically formed during their microperoxidase 11-catalized reduction in presence of Amplex Red (for 40 min at 4° C.) (8). Fluorescence HPLC (Eclipse XDB-C18 column, 5 μm, 150×4.6 mm, mobile phase was composed of 25 mM disodium phosphate buffer (pH 7.0)/methanol (60:40 v/v); excitation wavelength 560 nm, emission wavelength 590 nm) was performed on a Shimadzu LC-100AT HPLC system equipped with fluorescence detector (RF-10Axl) and autosampler (SIL-10AD).
In the subsequent series of in vivo studies, the affect of intraluminal XJB-5-131 on hemorrhage-induced peroxidation of phospholipids in intestinal mucosa was examined. […] In a preferred embodiment, 0.3 mL of test solution filled the lumen of each ileal compartment.
After two hours of HS, samples of ileal mucosa from the gut sacs filled with the vehicle and XJB-5-131 were obtained and compared with ileal mucosa of normal MECs. […]

Row | Compound | toxicity [1] | cellular EPR signal detected in mitochondria (32D cl 3 cells; exponential growth) [%] | cellular EPR signal in nucleus and/or cellular debris (32D cl 3 cells; exponential growth) [%] | cellular EPR signal in the cytoplasm (32D cl 3 cells; exponential growth) [%] | concentration in the nucleus and cellular debris (32D cl 3 cells; exponential growth) [µM] | concentration in the whole cell pellet (32D cl 3 cells; exponential growth) [µM] | mitochondrial concentration (32D cl 3 cells; exponential growth) [µM] | cellular EPR signal in nucleus and/or cellular debris (32D cl 3 cells; pelleted cells) [%] | cellular EPR signal in the cytoplasm (32D cl 3 cells; pelleted cells) [%] | cellular EPR signal localized to the mitochondria (32D cl 3 cells; pelleted cells) [%] | mitochondrial concentration (32D cl 3 cells; pelleted cells) | n (shoulder) ([2]; 24 hours after irradiation) | Do ([2]; before or after irradiation) | n (shoulder) ([2]; one hour before irradiation) | peroxidation of phosphatidylcholine (PC) (rat ileal mucosa) | peroxidation of phosphatidylethanolamine (PE) (rat ileal mucosa) | peroxidation of phosphatidylserine (PS) (rat ileal mucosa)
1 | CC(C)C[C@@H](/C=C/CC(=O)NC1CC(C)(C)N([O])C(C)(C)C1)NC(=O)OC(C)(C)C [JP4-039, TEMPO-4-yl-(S,E)-5-(tert-butoxycarbonylamino)-7-methyloct-3-enamide] | no signs of toxicity; also recorded: not toxic | 5.0±0.3 | 37.2±0.3 | 19.4±1.6 | 10.1 ± 0.1 | 12.6 ± 0.2 | 8.5 ± 0.5 | 33.2±3.8 | 29.5±0.7 | 3.9±0.2 | 10.90 ± 0.48 µM and 10.9 µM | 2.2±0.2 | no significant change | 2.3±0.2 | – | – | –
2 | CC(C)C[C@@H](/C=C/[C@H](Cc1ccccc1)C(=O)N1CCC[C@H]1C(=O)N[C@H](C(=O)N[C@@H](CCCNC(=O)OCc1ccccc1)C(=O)NC1CC(C)(C)N([O])C(C)(C)C1)C(C)C)NC(=O)OC(C)(C)C [XJB-5-131] | – | – | – | – | – | – | – | – | – | – | – | – | – | – | no effect | small effect | no effect

— patent publication US8822541B2, “Use of targeted nitroxide agents in mitigating or treating radiation injury” (University of Pittsburgh—Of the Commonwealth System of …, priority 2008, dated 2014)
